SMILES strings stand for the structures. Converted amounts (≈) assume the structure as drawn. Some results are limits rather than exact numbers.

In experiment [1] the test system is Pyrenophora teres. The experiment is described as follows: Pyrenophora teres test (barley)/protective. The following applies: protective, 0.025 % by weight in the spray liquor, 7 days after inoculation.
Experimental: Solvent: 100 parts by weight of dimethylformamide
Emulsifier: 0.25 part by weight of alkylaryl polyglycol ether
After the spray coating has dried on, the plants are sprayed with a conidia suspension of Pyrenophora teres. The plants then remain in an incubation cabin at 20° C. and 100% relative atmospheric humidity for 48 hours.
The plants are placed in a greenhouse at a temperature of about 20° C. and a relative atmospheric humidity of about 80%.
(§2) Evaluation is carried out 7 days after the inoculation.
The test system of experiment [2] is Drechslera graminea. The experiment is described as follows: Drechslera graminea test (barley)/seed treatment (syn. Helminthosporium gramineum). In kind it is in vivo. Conditions: seed treatment, about 3 weeks after sowing, undressed 29.7.
Experiment [3] concerns Pyricularia oryzae. In kind it is in vivo. The following applies: rice, protective; active compound concentration 0.025 %; 4 days after inoculation.
The test system of experiment [4] is Chaetomium globosum. The experiment is described as follows: Minimum inhibitory concentration (MIC) in agar, Chaetomium globosum. In kind it is cell-based. Conditions: 336 h, 28° C., two weeks. How it is done: (§1) Active compounds according to the invention are added in concentrations of 0.1 mg/l to 5,000 mg/l to an agar prepared from bierwort and peptone. After being kept at 28° C. and 60 to 70% relative atmospheric humidity for two weeks, the MIC is determined. The MIC is the lowest concentration of active compound at which no growth at all by the species of microbe used takes place, and is shown in the following Table I.

Experiment [5] concerns Aspergillus niger. The experiment is described as follows: Minimum inhibitory concentration (MIC) in agar, Aspergillus niger. It counts as cell-based. The following applies: 336 h, 28° C., two weeks. How it is done: as §1
The subject of experiment [6] is Penicillium glaucum. The experiment is described as follows: Minimum inhibitory concentration (MIC) in agar, Penicillium glaucum. Conditions: 336 h, 28° C., two weeks. In kind it is cell-based. The method, then: as §1
The test system of experiment [7] is Sclerophoma pityophila. The experiment is described as follows: Minimum inhibitory concentration (MIC) in agar, Sclerophoma pityophila. It counts as cell-based. Conditions: Sydowia polyspora, 336 h, 28° C., two weeks. How it is done: as §1
The test system of experiment [8] is Coniophora puteana. The experiment is described as follows: Minimum inhibitory concentration (MIC) in agar, Coniophora puteana. In kind it is cell-based. Conditions: 336 h, 28° C., two weeks. The method, then:
as §1

The subject of experiment [9] is Aureobasidium pullulans. The experiment is described as follows: Minimum inhibitory concentration (MIC) in agar, Aureobasidium pullulans. In kind it is cell-based. The following applies: 336 h, 28° C., two weeks. How it is done: as §1
In experiment [10] the test system is Lentinus tigrinus. The experiment is described as follows: Minimum inhibitory concentration (MIC) in agar, Lentinus tigrinus. In kind it is cell-based. The following applies: 336 h, 28° C., two weeks. How it is done:
as §1

The subject of experiment [11] is Polyporus versicolor. The experiment is described as follows: Minimum inhibitory concentration (MIC) in agar, Polyporus versicolor. Conditions: Trametes versicolor, 336 h, 28° C., two weeks. In kind it is cell-based. How it is done: as §1
The subject of experiment [12] is Alternaria tenuis. The experiment is described as follows: Minimum inhibitory concentration (MIC) in agar, Alternaria tenuis. It counts as cell-based. Conditions: Alternaria alternata, 336 h, 28° C., two weeks. The method, then: as §1
For experiment [13], the system named is Plasmopara viticola. The experiment is described as follows: Plasmopara test (vines)/protective. The following applies: protective, 7 days after inoculation.
Experimental: Solvent: 4.7 parts by weight of acetone
Emulsifier: 0.3 part by weight of alkylaryl polyglycol ether
After the spray coating has dried on, the plants are inoculated with an aqueous spore suspension of Plasmopara viticola and then remain in a humidity chamber at 20° to 22° C. and 100% relative atmospheric humidity for 1 day. The plants are then placed in a greenhouse at 22° C. and about 80% atmospheric humidity for 5 days. The plants are then moistened and placed in a humidity chamber for 1 day.
as §2

With `CCOc1ccc(N(SC(F)(Cl)Cl)C(=O)OC)cc1`, the “Disease infestation in % of the untreated control” value (shortened to “Disease infestation in %”) in experiment [1] was 29.4%.

For the molecule `COC(=O)N(SC(F)(Cl)Cl)c1cc(Cl)c(OC)c(Cl)c1`, the “Disease infestation in %” value in [1] is on record as 25.0%.

With `COc1c(Cl)cc(N(SC(F)(Cl)Cl)C(=O)OC(C)C)cc1Cl`, the “Disease infestation in %” value in experiment [1] amounted to 25.0%.

On to `COC(=O)N(SC(F)(Cl)Cl)c1ccc(OC)c(OC)c1`, for which, in [1], the “Disease infestation in %” value came to 0.0%.

`COc1ccc(N(SC(F)(Cl)Cl)C(=O)OC(C)C)cc1OC`: the “Disease infestation in %” value in experiment [1] is on record as 25.0%.

In the case of `O=C(OCC(Cl)(Cl)Cl)N(SC(F)(Cl)Cl)c1ccc(Cl)cc1`, in experiment [1], the “Disease infestation in %” value is recorded as 33.7%.

`COC(=O)N(SC(F)(Cl)Cl)c1ccccc1`: the “Diseased plants in % of the total plants emerged” value (from here on “Diseased plants in %”) in experiment [2] (500 mg/kg of seed) is recorded as 3.1%.

For `COCCOC(=O)N(SC(F)(Cl)Cl)c1ccccc1`, in experiment [3], the “Disease infestation in %” value amounted to 30%.

Regarding `O=C(OCc1ccc(Cl)c(Cl)c1)N(SC(F)(Cl)Cl)c1ccccc1`, in experiment [3], the “Disease infestation in %” value was 10%.

For `COC(=O)N(SC(F)(Cl)Cl)c1ccc(Cl)cc1` [Example 1], the MIC in experiment [4], in experiment [5] and in [6] was less than 20 µg/mL throughout.

As to `COC(=O)N(SC(F)(Cl)Cl)c1cccc(Cl)c1` [Example 9], the MIC in [4], in [5] and in experiment [6] was less than 20 µg/mL in each case.

On to `COC(=O)N(SC(F)(Cl)Cl)c1cccc(Cl)c1Cl` [Example 14], for which the MIC in experiment [4], in experiment [5] and in experiment [6] was less than 20 µg/mL in each case.

For the molecule `COC(=O)N(SC(F)(Cl)Cl)c1ccc(Cl)cc1Cl` [Example 16], the MIC in experiment [4], in experiment [5] and in experiment [6] was less than 20 µg/mL in each case.

For the molecule `COC(=O)N(SC(F)(Cl)Cl)c1ccc(Cl)c(Cl)c1` [Example 18], the values for the minimum inhibitory concentration (MIC) in experiment [4], in experiment [5] and in experiment [6] were less than 20 µg/mL, 35 µg/mL (≈ 99.1 µM) and less than 20 µg/mL, respectively.

For the molecule `CCOC(=O)N(SC(F)(Cl)Cl)c1cc(Cl)cc(Cl)c1` [Example 23], the MIC in experiment [7] was 1.5 µg/mL (≈ 4.09 µM); in experiment [8] it was 1 µg/mL (≈ 2.72 µM); in experiment [4], 10 µg/mL (≈ 27.2 µM); in experiment [9], 3.5 µg/mL (≈ 9.54 µM); in [5], 35 µg/mL (≈ 95.4 µM); in experiment [10], 1 µg/mL (≈ 2.72 µM). The minimum inhibitory concentration (MIC) in [11] was 2 µg/mL (≈ 5.45 µM); in experiment [12] it was 5 µg/mL (≈ 13.6 µM); in [6], 7.5 µg/mL (≈ 20.4 µM).

For `COC(=O)N(SC(F)(Cl)Cl)c1ccc(Cl)cc1C` [Example 29], the minimal inhibitory concentration (MIC) in experiment [4], in experiment [5] and in experiment [6] was less than 20 µg/mL in each case.

Consider `COC(=O)N(SC(F)(Cl)Cl)c1ccc(C)c(Cl)c1` [Example 31], for which the MIC in experiment [4], in [5] and in experiment [6] was less than 20 µg/mL each time.

For the molecule `COC(=O)N(SC(Cl)(Cl)Cl)c1ccccc1` [Example 41], the minimum inhibitory concentration (MIC) in experiment [7] was determined as 1 µg/mL (≈ 3.33 µM); in experiment [8] it was 0.1 µg/mL (≈ 0.333 µM); in experiment [4], 2 µg/mL (≈ 6.65 µM); in experiment [9], 1.5 µg/mL (≈ 4.99 µM); in experiment [5], 5 µg/mL (≈ 16.6 µM); in experiment [10] it was 0.5 µg/mL (≈ 1.66 µM). In addition, the values for the MIC in experiment [11], in [12] and in experiment [6] were 1.5 µg/mL (≈ 4.99 µM), 0.5 µg/mL (≈ 1.66 µM) and 20 µg/mL (≈ 66.5 µM), respectively.

With `CN(C)S(=O)(=O)N(SC(F)(Cl)Cl)c1ccccc1` [drawing 10, reference compound], the “Disease infestation in %” value in experiment [1] is listed as 72.5%.

On to `COC(=O)N(SC(F)(Cl)Cl)c1ccc(C)c(Cl)c1` [drawing 11], for which the “Disease infestation in %” value in [1] came out at 39.4%.

For `COC(=O)N(SC(F)(Cl)Cl)c1ccc(Cl)cc1Cl` [drawing 12], the “Disease infestation in %” value in [1] is recorded as 37.7%.

As to `COC(=O)N(SC(F)(Cl)Cl)c1ccc(Cl)cc1C` [drawing 13], the “Disease infestation in %” value in [1] is 31.3%.

For `COC(=O)N(SC(F)(Cl)Cl)c1cccc(C(F)(F)F)c1` [drawing 14], in [1], the “Disease infestation in %” value was 30.3%.

Take `COC(=O)N(SC(F)(Cl)Cl)c1cc(Cl)cc(Cl)c1` [drawing 15]: in [1], the “Disease infestation in %” value came out at 30.3%.

Regarding `COC(=O)N(SC(F)(Cl)Cl)c1cccc(Cl)c1` [drawing 16], the “Disease infestation in %” value in experiment [1] was found to be 20.3%.

For `COC(=O)N(SC(F)(Cl)Cl)c1ccc(C(F)(F)F)c(Cl)c1` [drawing 17], in experiment [1], the “Disease infestation in %” value came to 20.3%.

`COC(=O)N(SC(Cl)(Cl)Cl)c1ccccc1` [drawing 18]: in experiment [1], the “Disease infestation in %” value worked out at 20.3%.

Regarding `COC(=O)N(SC(F)(Cl)Cl)c1ccc(Cl)c(Cl)c1` [drawing 25], the “Disease infestation in %” value in experiment [1] is listed as 14.5%.

As for `COC(=O)N(SC(F)(Cl)Cl)c1ccc(Cl)cc1` [drawing 26], the “Disease infestation in %” value in [1] is on record as 37.7%.

Turning to `CN(C)S(=O)(=O)N(SC(F)(Cl)Cl)c1ccccc1` [drawing 27, reference compound], in experiment [2] (600 mg/kg of seed), the “Diseased plants in %” value was found to be 23.9%.

As for `COC(=O)N(SC(F)(Cl)Cl)c1ccc(C)c(Cl)c1` [drawing 28], the “Diseased plants in %” value in experiment [2] (500 mg/kg of seed) came out at 3.2%.

As for `COC(=O)N(SC(F)(Cl)Cl)c1ccc(Cl)cc1C` [drawing 29], the “Diseased plants in %” value in experiment [2] (500 mg/kg of seed) is 0.0%.

Take `COC(=O)N(SC(F)(Cl)Cl)c1cccc(C(F)(F)F)c1` [drawing 30]: the “Diseased plants in %” value in experiment [2] (500 mg/kg of seed) came out at 0.0%.

`COC(=O)N(SC(F)(Cl)Cl)c1cc(Cl)cc(Cl)c1` [drawing 31]: in experiment [2] (500 mg/kg of seed), the “Diseased plants in %” value worked out at 0.0%.

As for `COC(=O)N(SC(F)(Cl)Cl)c1ccc(C(F)(F)F)c(Cl)c1` [drawing 32], the “Diseased plants in %” value in experiment [2] (500 mg/kg of seed) came out at 1.0%.

For `O=C(OCc1ccccc1)N(SC(F)(Cl)Cl)c1ccccc1` [drawing 36], the “Disease infestation in %” value in experiment [3] worked out at 0%.

As to `O=C(OCc1ccccc1)N(SC(F)(Cl)Cl)c1ccccc1` [drawing 39], the figures for the Infestation in % in experiment [13] (active compound concentration 1 ppm) and in [13] (active compound concentration 2 ppm) were 47% and 24%, respectively.

These data come from US4798905A, “Sulphenylated carbamic acid esters, a process for their preparation and their use” (Bayer Aktiengesellschaft, priority 1984, dated 1989).
